Values quoted from earlier work as cited in patent US20250057810A1, “AQUEOUS MELATONIN FORMULATION” (AGB-Pharma AB, priority 2021, published 2025).

Conditions: in vivo

blood levels returning to normal daytime levels after administration: 6 to 8 h
Compound: COc1ccc2[nH]cc(CCNC(C)=O)c2c1 [melatonin, N-acetyl-5-methoxytryptamine]
